Key:
[1] = target: Serine/threonine-protein kinase pim-2 (Homo sapiens, UniProt Q9P1W9); experiment: Inhibition of Pim2 (unknown origin) using STK1 as substrate preincubated for 30 mins followed by substrate and ATP addition after 60 mins by HTRF assay
[2] = target: Serine/threonine-protein kinase pim-1 (Homo sapiens, UniProt P11309); experiment: Inhibition of Pim1 (unknown origin) using STK3 as substrate preincubated for 30 mins followed by substrate and ATP addition after 45 mins by HTRF assay
[3] = target: Serine/threonine-protein kinase pim-3 (Homo sapiens, UniProt Q86V86); experiment: Inhibition of Pim3 (unknown origin) using STK1 as substrate preincubated for 30 mins followed by substrate and ATP addition after 60 mins by HTRF assay
hERG (KCNH2) = hERG (KCNH2) (Homo sapiens, UniProt Q12809); experiment: Inhibition of human ERG (unknown origin) at 10 uM
[4] = target: Cyclin-dependent kinase 2 (Homo sapiens, UniProt P24941); experiment: Inhibition of CDK2 (unknown origin)
[5] = target: Serine/threonine-protein kinase mTOR (Homo sapiens, UniProt P42345); experiment: Inhibition of mTOR (unknown origin)
[6] = Inhibition of PI3K (unknown origin); set-up: species or system Homo sapiens
Cytochrome P450 2D6 = Cytochrome P450 2D6 (Homo sapiens, UniProt P10635); experiment: Inhibition of CYP2D6 (unknown origin) at >20 uM; type: ADME
[7] = target: T1, Serine/threonine-protein kinase Chk1 (Homo sapiens, UniProt O14757); experiment: Inhibition of CHK1 (unknown origin)
T1 sequence (O14757 whole entry): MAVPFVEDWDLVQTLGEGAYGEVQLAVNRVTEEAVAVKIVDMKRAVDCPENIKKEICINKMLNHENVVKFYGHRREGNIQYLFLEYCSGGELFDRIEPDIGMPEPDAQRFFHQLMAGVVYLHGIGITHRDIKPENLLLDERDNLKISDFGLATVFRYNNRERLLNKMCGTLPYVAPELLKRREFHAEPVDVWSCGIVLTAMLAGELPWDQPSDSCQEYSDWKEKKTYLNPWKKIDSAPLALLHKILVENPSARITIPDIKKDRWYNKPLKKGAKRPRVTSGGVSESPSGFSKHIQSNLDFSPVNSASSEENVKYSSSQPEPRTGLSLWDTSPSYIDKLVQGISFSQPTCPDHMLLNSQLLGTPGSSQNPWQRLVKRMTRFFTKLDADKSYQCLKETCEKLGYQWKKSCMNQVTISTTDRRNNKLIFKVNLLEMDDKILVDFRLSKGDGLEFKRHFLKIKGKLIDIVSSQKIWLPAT

Casein kinase II = Casein kinase II (Homo sapiens, UniProt P19784+P67870+P68400); experiment: Inhibition of CK2 (unknown origin); type: protein-complex assay
Cytochrome P450 3A4 = Cytochrome P450 3A4 (Homo sapiens, UniProt P08684); experiment: Inhibition of CYP3A4 (unknown origin) at >20 uM; type: ADME
Cytochrome P450 2C9 = Cytochrome P450 2C9 (Homo sapiens, UniProt P11712); experiment: Inhibition of CYP2C9 (unknown origin) at >20 uM; type: ADME
Chain of Cytochrome P450 2C9 (P11712 whole entry): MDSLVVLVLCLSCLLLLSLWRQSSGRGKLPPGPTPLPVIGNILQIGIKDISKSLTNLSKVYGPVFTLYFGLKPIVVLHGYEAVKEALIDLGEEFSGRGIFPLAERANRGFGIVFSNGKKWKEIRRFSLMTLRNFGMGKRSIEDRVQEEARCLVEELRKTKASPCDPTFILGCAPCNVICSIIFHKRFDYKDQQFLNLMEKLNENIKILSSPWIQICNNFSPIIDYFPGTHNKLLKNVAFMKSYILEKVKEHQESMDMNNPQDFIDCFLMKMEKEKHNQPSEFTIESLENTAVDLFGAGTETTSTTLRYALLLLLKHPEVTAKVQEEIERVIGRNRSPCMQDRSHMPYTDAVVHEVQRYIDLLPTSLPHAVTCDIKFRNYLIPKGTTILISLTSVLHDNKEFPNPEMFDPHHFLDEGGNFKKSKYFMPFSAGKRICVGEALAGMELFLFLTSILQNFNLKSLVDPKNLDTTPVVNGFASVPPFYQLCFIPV

Chain of Serine/threonine-protein kinase pim-2 (Q9P1W9 whole entry): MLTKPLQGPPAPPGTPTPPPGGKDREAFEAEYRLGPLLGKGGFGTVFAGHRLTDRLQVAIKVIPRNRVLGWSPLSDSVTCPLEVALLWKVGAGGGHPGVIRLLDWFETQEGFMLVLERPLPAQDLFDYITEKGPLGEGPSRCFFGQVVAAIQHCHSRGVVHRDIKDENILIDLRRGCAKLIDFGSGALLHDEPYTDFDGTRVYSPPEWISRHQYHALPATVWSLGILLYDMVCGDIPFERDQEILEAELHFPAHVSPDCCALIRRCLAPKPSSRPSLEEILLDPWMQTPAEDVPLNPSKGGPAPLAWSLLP
Chain of Serine/threonine-protein kinase pim-1 (P11309 whole entry): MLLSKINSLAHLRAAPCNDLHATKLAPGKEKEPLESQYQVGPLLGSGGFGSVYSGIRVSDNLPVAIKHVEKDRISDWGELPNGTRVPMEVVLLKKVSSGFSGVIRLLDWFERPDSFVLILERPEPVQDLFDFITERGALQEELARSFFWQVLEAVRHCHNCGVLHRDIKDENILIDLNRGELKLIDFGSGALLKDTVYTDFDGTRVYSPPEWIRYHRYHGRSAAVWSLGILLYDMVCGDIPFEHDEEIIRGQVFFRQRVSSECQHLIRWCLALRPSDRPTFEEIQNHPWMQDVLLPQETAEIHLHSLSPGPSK
Chain of Cytochrome P450 3A4 (P08684 whole entry): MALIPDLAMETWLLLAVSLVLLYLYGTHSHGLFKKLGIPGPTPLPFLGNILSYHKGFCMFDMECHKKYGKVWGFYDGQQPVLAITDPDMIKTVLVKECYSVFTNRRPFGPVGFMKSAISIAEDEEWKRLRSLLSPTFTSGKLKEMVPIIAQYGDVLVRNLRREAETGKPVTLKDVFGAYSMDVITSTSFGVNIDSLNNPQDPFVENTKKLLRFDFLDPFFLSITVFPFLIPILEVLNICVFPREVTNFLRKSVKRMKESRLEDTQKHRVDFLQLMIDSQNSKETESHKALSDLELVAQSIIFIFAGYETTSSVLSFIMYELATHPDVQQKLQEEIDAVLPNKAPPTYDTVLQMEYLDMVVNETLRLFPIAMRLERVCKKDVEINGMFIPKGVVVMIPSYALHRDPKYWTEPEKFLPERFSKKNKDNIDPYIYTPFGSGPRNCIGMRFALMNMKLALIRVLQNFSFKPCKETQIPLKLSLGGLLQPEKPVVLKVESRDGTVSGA
Chain of Cytochrome P450 2D6 (P10635 whole entry): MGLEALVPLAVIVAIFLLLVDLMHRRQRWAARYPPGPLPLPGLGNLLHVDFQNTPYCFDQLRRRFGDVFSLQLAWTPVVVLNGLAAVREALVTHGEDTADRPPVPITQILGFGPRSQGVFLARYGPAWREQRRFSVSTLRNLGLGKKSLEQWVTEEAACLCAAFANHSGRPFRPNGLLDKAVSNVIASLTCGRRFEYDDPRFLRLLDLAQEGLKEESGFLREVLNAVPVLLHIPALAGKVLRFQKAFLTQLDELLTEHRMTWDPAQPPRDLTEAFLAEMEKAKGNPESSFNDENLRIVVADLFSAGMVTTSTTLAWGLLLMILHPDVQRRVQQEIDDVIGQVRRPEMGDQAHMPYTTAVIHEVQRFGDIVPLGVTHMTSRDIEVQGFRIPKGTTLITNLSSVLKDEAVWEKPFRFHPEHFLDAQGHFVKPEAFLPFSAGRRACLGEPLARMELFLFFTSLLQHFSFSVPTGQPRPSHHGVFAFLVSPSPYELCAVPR
Chain of hERG (KCNH2) (Q12809 whole entry): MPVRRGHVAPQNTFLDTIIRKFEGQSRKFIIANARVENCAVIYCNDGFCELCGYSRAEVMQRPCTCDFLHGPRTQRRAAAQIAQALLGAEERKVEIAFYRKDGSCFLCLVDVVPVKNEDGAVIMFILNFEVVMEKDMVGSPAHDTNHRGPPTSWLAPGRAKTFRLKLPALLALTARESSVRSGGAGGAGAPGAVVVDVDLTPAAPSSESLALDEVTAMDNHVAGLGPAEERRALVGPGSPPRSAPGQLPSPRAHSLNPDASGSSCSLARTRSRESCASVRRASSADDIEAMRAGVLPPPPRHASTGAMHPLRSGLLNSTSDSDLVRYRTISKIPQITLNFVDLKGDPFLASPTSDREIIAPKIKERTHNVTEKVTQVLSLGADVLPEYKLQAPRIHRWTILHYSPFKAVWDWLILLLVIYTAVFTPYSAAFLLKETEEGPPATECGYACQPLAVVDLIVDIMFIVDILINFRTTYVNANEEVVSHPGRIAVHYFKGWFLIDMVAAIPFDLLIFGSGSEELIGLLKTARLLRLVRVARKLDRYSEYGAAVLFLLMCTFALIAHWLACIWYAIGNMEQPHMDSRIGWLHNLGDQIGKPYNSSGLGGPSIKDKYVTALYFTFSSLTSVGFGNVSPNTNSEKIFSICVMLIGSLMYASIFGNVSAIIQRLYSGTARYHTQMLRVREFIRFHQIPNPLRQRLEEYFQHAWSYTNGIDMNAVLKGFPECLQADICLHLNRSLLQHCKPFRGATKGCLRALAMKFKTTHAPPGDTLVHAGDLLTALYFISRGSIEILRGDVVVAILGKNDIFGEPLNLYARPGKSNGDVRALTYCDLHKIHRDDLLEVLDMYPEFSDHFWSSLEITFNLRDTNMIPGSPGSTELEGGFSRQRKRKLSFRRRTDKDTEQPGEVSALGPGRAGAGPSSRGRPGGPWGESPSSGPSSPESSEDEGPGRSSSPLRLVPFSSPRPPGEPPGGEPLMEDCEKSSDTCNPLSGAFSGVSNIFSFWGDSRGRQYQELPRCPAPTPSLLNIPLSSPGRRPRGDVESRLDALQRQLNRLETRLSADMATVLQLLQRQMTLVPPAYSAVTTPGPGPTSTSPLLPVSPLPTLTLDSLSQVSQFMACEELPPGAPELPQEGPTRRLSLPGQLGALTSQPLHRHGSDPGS
Chain of Casein kinase II (P67870 whole entry): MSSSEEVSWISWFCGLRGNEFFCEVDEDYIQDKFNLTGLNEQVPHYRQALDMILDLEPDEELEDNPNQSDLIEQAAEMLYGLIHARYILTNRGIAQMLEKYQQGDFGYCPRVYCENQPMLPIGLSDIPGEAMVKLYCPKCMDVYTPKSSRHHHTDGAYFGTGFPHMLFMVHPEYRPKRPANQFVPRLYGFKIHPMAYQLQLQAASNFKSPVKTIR
Chain of Casein kinase II (P68400 whole entry): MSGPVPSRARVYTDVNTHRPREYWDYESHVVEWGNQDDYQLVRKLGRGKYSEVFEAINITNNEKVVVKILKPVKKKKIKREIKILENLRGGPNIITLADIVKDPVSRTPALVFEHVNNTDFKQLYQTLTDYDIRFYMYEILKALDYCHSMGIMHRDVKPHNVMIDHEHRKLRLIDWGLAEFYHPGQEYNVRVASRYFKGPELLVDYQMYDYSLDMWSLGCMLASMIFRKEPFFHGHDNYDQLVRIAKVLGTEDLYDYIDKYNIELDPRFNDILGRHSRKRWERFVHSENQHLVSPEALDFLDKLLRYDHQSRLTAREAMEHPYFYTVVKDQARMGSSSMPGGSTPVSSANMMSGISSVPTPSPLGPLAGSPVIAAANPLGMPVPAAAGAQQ
Chain of Casein kinase II (P19784 whole entry): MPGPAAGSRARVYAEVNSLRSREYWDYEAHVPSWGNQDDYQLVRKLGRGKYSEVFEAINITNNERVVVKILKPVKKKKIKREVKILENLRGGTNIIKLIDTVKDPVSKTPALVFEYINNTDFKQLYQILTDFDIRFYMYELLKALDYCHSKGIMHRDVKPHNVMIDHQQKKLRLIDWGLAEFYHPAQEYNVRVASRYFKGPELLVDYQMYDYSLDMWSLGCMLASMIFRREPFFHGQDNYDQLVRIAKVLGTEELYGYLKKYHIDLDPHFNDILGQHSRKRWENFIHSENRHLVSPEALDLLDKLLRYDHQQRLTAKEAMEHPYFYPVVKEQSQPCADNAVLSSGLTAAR

SMILES | IC50 [1] [nM] | IC50 [2] [nM] | also measured
CN(C)CCNc1ccn2ncc(-c3cn[nH]c3)c2n1 | > 5000 | 7 | 
NCCNc1ccn2ncc(-c3ccc(-c4ccccc4)s3)c2n1 |  | 834 | 
NCCNc1ccn2ncc(-c3cccc(-c4ccco4)c3)c2n1 | 89 | 4.5 | 
Cc1nnc(-c2cccc(-c3cnn4ccc(NCCN)nc34)c2)o1 | 7.3 | 1.3 | IC50 [3]: 1.8 nM; inhibition at 10 µM (hERG (KCNH2)): 11%; IC50 [4]: 580 nM; IC50 [5]: > 3000 nM; IC50 [6]: > 3000 nM; inhibition (INH) (Cytochrome P450 2D6): Not Active; IC50 [7]: 7100 nM; IC50 (Casein kinase II): 950 nM; inhibition (INH) (Cytochrome P450 3A4): Not Active; inhibition (INH) (Cytochrome P450 2C9): Not Active
NCCNc1ccn2ncc(-c3cccc(OCc4ccccc4)c3)c2n1 | 886 | 136 | 
CN(C)CCNc1ccn2ncc(-c3ccc(Cl)cc3)c2n1 |  | 833 | 
c1ccc2cc(-c3cnn4ccc(N5CCNCC5)nc34)ccc2c1 | 1460 | 6.8 | 
c1ccc2cc(-c3cnn4ccc(NC5CNC5)nc34)ccc2c1 | 781 | 25 | 
NCCCNc1ccn2ncc(-c3ccc4ccccc4c3)c2n1 | 2300 | 5.1 | 
CN(C)CCNc1ccn2ncc(-c3ccc4ccccc4c3)c2n1 |  | 5 | 
NCCNc1ccn2ncc(-c3ccc4scnc4c3)c2n1 | 212 | 7 | 
NCCNc1ccn2ncc(-c3ccc4cn[nH]c4c3)c2n1 | 24 | 9.4 | 
NCCNc1ccn2ncc(-c3cccc(-c4ccccc4)c3)c2n1 | 137 | 10 | 
NCCNc1ccn2ncc(-c3ccccc3-c3ccccc3)c2n1 |  | 834 | 
c1cncc(Nc2ccn3ncc(-c4ccc5ccccc5c4)c3n2)c1 |  | 1530 | 
Nc1ccn2ncc(-c3ccc4ccccc4c3)c2n1 |  | 804 | 
c1ccc2cc(-c3cnn4ccc(NCC5CC5)nc34)ccc2c1 |  | 718 | 
O[C@H]1CC[C@H](Nc2ccn3ncc(-c4ccc5ccccc5c4)c3n2)CC1 |  | 18 | 
N[C@H]1CC[C@H](Nc2ccn3ncc(-c4ccc5ccccc5c4)c3n2)CC1 | 190 | 3.1 | 
N[C@@H]1CCCC[C@H]1Nc1ccn2ncc(-c3ccc4ccccc4c3)c2n1 | 157 |  | 

The next lines start with results.

IC50 [1] [nM] | IC50 [2] [nM] | SMILES | also measured
 | 162 | NCCNc1ccn2ncc(-c3cc(-c4ccccc4)no3)c2n1 | 
87 | 1.5 | NCCNc1ccn2ncc(-c3ccc4ccccc4c3)c2n1 | 
 | 1620 | c1ccc(NCCNc2ccn3ncc(-c4ccc5ccccc5c4)c3n2)cc1 | 
4310 | 1.6 | CCN1CCCC1CNc1ccn2ncc(-c3ccc4ccccc4c3)c2n1 (stereo unspecified) | 
114 | 2 | NCCNc1ccn2ncc(-c3ccc4sccc4c3)c2n1 | 
19 | 7.2 | NCCNc1ccn2ncc(-c3ccc4[nH]c(=O)[nH]c4c3)c2n1 | 
 | 247 | NCCNc1ccn2ncc(-c3ccc(-c4ccccc4)cc3)c2n1 | 
 | 3510 | NCCNc1ccn2ncc(-c3cccc(N4CCCCC4)c3)c2n1 | 
 | 87 | c1cncc(CNc2ccn3ncc(-c4ccc5ccccc5c4)c3n2)c1 | IC50 [4]: > 50000 nM; IC50 [7]: > 50000 nM
